Results: US8916593B2, “Alkoxy-substituted 2-aminopyridines as ALK inhibitors” (Pfizer Inc., priority 2010, dated 2014)
Counter-ions that a name gives are not always drawn.

Key:
[1] = molecular target: EML4-ALK wt v1 in NIH-3T3 cells (Homo sapiens, UniProt Q9UM73)
[2] = molecular target: T1, human recombinant wild-type ALK kinase domain (amino acids 1093-1411) (Homo sapiens, UniProt Q9UM73); test: ALK enzyme assay 2 (microfluidic mobility shift assay); format: biochemical;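 further: kinase reaction run 1 h at room temperature, conversion quantified by electrophoretic separation of fluorescent peptide substrate from phosphorylated product, about 15-20% turnover without inhibitor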
T1 construct: ALK kinase domain (amino acids 1093-1411); made in house
Procedure: The reactions were incubated for 1 h at room temperature, stopped by the addition of 0.1 M EDTA, pH 8, and the extent of reactions (˜15-20% conversion with no inhibitor) was determined after electrophoretic separation of the fluorescently labeled peptide substrate and phosphorylated product on an LabChip EZ Reader II (Caliper Life Sciences, Hopkinton, Mass.).

cMet enzyme = molecular target: T2, cMet enzyme (Homo sapiens, UniProt P08581); test: cMet enzymatic activity assay; format: biochemical; details: purified cMet enzyme 7.5 nM, ATP 17 μM (Km)
T2 construct: RTC Lot#032006
Procedure: cMet Enzymatic Activity Assay
Compounds were added at a final concentration of 2% DMSO in half-log dilutions, starting at 20 μM final concentration. The reactions were initiated by addition of 10 μL of peptide/ATP mix to 10 μL enzyme and 5 μL of compound in 384-well plate. […] Substrate and phosphorylated product were separated with an upstream voltage of −2650 V, a downstream voltage of −500V, and a screen pressure of −1.5 psi. The relative peak heights of substrate and product were measured and ratios were calculated using HTS Well Analyzer Software version 5.2.43 from the manufacturer.

ALK enzyme = molecular target: T3, ALK enzyme (Homo sapiens, UniProt Q9UM73); test: ALK enzymatic activity assay 1; format: biochemical
T3 construct: purchased Invitrogen PV4185
Procedure: ALK Enzymatic Activity Assay 1
Compounds were added at a final concentration of 1% DMSO in half-log dilutions, starting at 20 μM final concentration. The reactions were initiated by the addition of 10 μL of peptide/ATP mix to 10 μL enzyme and 2 μL of compound in 384-well plate. […] On the 12-sipper chip, substrate and phosphorylated product were separated with an upstream voltage of −2650 V, a downstream voltage of −500 V, and a screen pressure of −1.5 psi. The relative peak heights of substrate and product were measured and ratios were calculated using HTS Well Analyzer Software version 5.2.43 from the manufacturer.

Sequence of EML4-ALK wt v1 in NIH-3T3 cells (Q9UM73 with tags, fused parts or gaps): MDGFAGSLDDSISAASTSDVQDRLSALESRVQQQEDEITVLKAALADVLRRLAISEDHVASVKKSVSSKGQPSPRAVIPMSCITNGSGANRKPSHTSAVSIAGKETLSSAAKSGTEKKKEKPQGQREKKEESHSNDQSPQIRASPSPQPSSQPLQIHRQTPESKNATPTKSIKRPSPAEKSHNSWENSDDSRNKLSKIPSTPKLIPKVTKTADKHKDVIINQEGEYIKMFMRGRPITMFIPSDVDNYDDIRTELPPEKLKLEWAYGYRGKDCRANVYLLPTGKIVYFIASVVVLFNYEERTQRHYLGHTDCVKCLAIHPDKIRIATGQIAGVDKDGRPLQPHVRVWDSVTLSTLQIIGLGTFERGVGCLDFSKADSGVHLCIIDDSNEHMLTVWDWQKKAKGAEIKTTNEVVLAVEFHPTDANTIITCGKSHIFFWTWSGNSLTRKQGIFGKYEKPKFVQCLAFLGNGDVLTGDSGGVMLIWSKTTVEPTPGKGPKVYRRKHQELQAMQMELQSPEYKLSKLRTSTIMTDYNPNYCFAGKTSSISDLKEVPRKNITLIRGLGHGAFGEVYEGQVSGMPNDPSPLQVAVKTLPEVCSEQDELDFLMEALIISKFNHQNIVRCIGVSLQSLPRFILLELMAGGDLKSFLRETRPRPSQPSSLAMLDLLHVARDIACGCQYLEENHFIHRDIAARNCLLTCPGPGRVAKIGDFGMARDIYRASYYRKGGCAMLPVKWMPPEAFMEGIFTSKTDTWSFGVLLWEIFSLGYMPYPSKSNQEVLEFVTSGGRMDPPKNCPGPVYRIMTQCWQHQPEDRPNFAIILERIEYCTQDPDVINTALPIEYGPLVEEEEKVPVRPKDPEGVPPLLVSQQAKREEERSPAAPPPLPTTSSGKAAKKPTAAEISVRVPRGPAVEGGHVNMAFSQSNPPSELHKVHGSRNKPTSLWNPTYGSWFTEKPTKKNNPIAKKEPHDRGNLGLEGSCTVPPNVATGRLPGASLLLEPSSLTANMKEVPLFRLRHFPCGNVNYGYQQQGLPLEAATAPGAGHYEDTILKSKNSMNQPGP
T2 sequence (P08581 25-1390): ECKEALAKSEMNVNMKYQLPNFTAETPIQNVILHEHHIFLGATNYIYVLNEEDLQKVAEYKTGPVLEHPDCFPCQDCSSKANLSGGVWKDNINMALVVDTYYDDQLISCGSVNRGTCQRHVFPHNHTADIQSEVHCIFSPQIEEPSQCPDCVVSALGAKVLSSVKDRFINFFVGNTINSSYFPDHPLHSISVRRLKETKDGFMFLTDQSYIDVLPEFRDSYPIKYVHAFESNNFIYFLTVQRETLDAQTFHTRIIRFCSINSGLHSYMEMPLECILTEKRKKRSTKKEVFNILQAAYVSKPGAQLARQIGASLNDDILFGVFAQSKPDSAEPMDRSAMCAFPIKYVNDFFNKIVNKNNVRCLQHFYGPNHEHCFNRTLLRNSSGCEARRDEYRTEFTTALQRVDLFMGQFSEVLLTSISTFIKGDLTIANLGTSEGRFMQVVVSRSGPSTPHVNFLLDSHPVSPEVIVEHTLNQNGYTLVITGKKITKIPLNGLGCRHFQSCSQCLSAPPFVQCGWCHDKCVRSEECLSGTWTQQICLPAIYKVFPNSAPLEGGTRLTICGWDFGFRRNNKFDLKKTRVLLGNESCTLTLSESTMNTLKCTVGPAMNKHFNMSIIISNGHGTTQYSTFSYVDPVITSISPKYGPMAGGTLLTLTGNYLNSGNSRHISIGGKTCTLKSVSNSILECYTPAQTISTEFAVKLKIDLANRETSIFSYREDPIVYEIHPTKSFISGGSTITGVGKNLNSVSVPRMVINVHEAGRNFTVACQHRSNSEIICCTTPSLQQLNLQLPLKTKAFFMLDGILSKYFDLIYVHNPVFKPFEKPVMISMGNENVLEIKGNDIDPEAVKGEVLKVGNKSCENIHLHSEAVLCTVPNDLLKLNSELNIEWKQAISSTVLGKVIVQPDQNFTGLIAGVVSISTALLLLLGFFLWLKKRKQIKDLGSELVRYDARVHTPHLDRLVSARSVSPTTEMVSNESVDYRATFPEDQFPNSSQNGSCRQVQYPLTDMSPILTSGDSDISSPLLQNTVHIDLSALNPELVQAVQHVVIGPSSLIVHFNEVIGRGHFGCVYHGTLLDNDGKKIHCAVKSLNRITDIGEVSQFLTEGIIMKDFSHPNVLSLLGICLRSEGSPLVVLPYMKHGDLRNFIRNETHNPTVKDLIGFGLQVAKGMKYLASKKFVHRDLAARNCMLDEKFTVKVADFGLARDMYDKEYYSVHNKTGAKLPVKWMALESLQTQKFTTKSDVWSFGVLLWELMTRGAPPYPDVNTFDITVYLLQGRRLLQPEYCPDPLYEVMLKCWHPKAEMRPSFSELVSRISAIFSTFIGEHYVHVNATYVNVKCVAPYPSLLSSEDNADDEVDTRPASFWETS
T3 sequence (Q9UM73 19-1620): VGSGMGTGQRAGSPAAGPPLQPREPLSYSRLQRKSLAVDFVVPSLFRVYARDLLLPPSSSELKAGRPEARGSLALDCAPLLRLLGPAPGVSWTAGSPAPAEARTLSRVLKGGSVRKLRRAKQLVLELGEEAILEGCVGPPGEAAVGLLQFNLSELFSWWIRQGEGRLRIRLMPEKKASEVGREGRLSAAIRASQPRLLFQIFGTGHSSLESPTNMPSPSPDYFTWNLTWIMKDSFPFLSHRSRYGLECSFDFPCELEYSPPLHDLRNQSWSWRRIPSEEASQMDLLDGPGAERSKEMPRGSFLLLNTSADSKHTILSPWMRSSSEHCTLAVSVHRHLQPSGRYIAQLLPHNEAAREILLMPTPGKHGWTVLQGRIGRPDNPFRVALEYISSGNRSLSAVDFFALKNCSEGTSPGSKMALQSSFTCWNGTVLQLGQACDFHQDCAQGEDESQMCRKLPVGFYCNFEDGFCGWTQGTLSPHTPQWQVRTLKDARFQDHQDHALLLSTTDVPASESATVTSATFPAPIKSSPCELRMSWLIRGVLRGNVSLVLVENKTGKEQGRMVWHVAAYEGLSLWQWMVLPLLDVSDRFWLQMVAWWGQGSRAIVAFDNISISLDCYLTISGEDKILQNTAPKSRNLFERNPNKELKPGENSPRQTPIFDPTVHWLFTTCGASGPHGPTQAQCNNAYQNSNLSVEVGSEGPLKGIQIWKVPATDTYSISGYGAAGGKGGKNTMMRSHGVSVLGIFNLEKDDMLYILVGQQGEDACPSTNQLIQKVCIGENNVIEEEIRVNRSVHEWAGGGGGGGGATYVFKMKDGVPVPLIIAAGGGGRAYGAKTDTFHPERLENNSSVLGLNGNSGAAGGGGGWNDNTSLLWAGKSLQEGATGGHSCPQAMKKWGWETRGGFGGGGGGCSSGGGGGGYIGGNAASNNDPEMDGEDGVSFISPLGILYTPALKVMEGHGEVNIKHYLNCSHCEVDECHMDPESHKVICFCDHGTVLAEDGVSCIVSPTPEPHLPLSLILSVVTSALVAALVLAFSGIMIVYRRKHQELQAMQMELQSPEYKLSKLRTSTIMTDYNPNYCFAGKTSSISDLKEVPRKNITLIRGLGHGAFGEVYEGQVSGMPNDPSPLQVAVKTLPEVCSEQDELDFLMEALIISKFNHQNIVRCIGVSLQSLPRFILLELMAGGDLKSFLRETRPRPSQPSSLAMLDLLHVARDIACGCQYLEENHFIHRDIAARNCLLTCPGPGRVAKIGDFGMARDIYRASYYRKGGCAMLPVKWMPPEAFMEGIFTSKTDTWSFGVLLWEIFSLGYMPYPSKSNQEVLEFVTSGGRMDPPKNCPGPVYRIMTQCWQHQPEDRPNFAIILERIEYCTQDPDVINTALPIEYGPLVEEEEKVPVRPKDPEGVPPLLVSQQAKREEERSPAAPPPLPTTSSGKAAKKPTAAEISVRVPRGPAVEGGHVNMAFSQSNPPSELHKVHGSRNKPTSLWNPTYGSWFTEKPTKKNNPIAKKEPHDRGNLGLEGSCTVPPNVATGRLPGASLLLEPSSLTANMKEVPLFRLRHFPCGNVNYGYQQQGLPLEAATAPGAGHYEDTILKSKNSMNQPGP
T1 sequence (Q9UM73 1093-1411): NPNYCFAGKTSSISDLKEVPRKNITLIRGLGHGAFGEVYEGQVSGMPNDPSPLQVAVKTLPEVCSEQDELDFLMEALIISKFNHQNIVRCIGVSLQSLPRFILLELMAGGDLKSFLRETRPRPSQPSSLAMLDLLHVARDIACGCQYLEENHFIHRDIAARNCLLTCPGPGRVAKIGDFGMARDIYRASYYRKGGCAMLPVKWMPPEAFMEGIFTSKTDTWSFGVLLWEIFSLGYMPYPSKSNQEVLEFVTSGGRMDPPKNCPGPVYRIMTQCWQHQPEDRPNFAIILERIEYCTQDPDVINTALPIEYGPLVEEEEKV

Row | Compound | IC50 [1] | Ki [2] | IC50 (cMet enzyme) | IC50 (ALK enzyme)
1 | CC(Oc1nc(-c2cn(C)cn2)cnc1N)c1cc(F)ccc1Cl (stereo not drawn) [Example 59, 3-[1-(2-chloro-5-fluorophenyl)ethoxy]-5-(1-methyl-1H-imidazol-4-yl)pyrazin-2-amine] | 631 nM | 13 nM | > 20000 nM | 126 nM
2 | COc1ccc(F)cc1C(C)Oc1cc(-c2c(CO)cnn2C)cnc1N (stereo not drawn) [Example 18, (5-{6-amino-5-[1-(5-fluoro-2-methoxyphenyl)ethoxy]pyridin-3-yl}-1-methyl-1H-pyrazol-4-yl)methanol] | 421 nM | 8.1 nM | > 20000 nM | 92.6 nM
3 | COc1ncc(F)cc1C(C)Oc1cc(-c2ccnn2C)cnc1N (stereo not drawn) [Example 33, 3-[1-(5-fluoro-2-methoxypyridin-3-yl)ethoxy]-5-(1-methyl-1H-pyrazol-5-yl)pyridin-2-amine monohydrochloride] | 380 nM | 4.8 nM | > 20000 nM | 89.2 nM
4 | COc1ccncc1-c1cnc(N)c(OC(C)c2cc(F)ccc2OC)c1 (stereo not drawn) [Example 50, 5-[1-(5-fluoro-2-methoxyphenyl)-ethoxy]-4′-methoxy-3,3′-bipyridin-6-amine] | 58.4 nM | 0.739 nM | 5070 nM | 50.2 nM
5 | COc1ccc(F)cc1C(C)Oc1nc(-c2nccn2C)cnc1N (stereo not drawn) [Example 60, 3-[1-(5-fluoro-2-methoxyphenyl)ethoxy]-5-(1-methyl-1H-imidazol-2-yl)pyrazin-2-amine] | 555 nM | 6.4 nM | > 20000 nM | 67.3 nM
6 | Cc1n[nH]cc1-c1cnc(N)c(OC(C)c2cc(F)ccc2-n2cccn2)c1 (stereo not drawn) [Example 47, 3-{1-[5-fluoro-2-(1H-pyrazol-1-yl)phenyl]-ethoxy}-5-(3-methyl-1H-pyrazol-4-yl)pyridin-2-amine] | 45.7 nM | < 0.2 nM | 2850 nM | 70.5 nM
7 | CC(Oc1cc(-c2ccnn2C)cnc1N)c1cc(F)cc2cccnc12 (stereo not drawn) [Example 51, 3-[1-(6-fluoroquinolin-8-yl)ethoxy]-5-(1-methyl-1H-pyrazol-5-yl)pyridin-2-amine] | 1450 nM | 61 nM | 7870 nM | 45.2 nM
8 | COc1ccc(F)cc1C(C)Oc1nc(-c2cn(C)cn2)cnc1N (stereo not drawn) [Example 58, 3-[1-(5-fluoro-2-methoxyphenyl)ethoxy]-5-(1-methyl-1H-imidazol-4-yl)pyrazin-2-amine] | 159 nM | 1.3 nM | > 20000 nM | 86.5 nM
9 | COc1ccc(F)cc1[C@@H](C)Oc1cc(-c2c(C)nn(CCO)c2C)cnc1N [Example 53, 2-(4-{6-amino-5-[(1R)-1-(5-fluoro-2-methoxyphenyl)-ethoxy]pyridin-3-yl}-3,5-dimethyl-1H-pyrazol-1-yl)ethanol] | 23.3 nM | 0.401 nM | 4440 nM | 27 nM
10 | COc1ccc(F)cc1[C@@H](C)Oc1cc(-c2ccnn2C)nnc1N [Example 56, 4-[(1R)-1-(5-fluoro-2-methoxyphenyl)ethoxy]-6-(1-methyl-1H-pyrazol-5-yl)pyridazin-3-amine] | 361 nM | 6.4 nM | > 20000 nM | 47.5 nM
11 | CC(Oc1cc(-c2ccnn2C)nnc1N)c1cc(F)ccc1-n1cccn1 (stereo not drawn) [Example 55, 4-{1-[5-fluoro-2-(1H-pyrazol-1-yl)phenyl]ethoxy}-6-(1-methyl-1H-pyrazol-5-yl)pyridazin-3-amine] | 1760 nM | 43 nM | > 20000 nM | 87.6 nM
12 | COc1ccc(F)cc1C(C)Oc1cc(-c2c(C)nnn2C)cnc1N (stereo not drawn) [Example 10, 5-(1,4-dimethyl-1H-1,2,3-triazol-5-yl)-3-[1-(5-fluoro-2-methoxyphenyl)ethoxy]-pyridin-2-amine] | 361 nM | – | > 20000 nM | 86 nM
13 | COc1ccc(F)cc1[C@@H](C)Oc1cc(-c2cncn2C)cnc1N [Example 22, 3-[(1R)-1-(5-fluoro-2-methoxyphenyl)-ethoxy]-5-(1-methyl-1H-imidazol-5-yl)pyridin-2-amine] | 47.5 nM | – | 3680 nM | 38 nM
14 | C[C@@H](Oc1cc(-c2scnc2CO)cnc1N)c1cc(F)ccc1-n1nccn1 [Example 28] | – | – | 13000 nM | 63.5 nM
15 | C[C@@H](Oc1cc(-c2c(F)cnn2C)cnc1N)c1cc(F)ccc1-n1nccn1 [Example 29] | 151 nM | – | 7480 nM | 30 nM

Results, then the compound that gave them:

Row | IC50 [1] | Ki [2] | IC50 (cMet enzyme) | IC50 (ALK enzyme) | Compound
16 | – | < 0.249 nM | 5090 nM | 34.9 nM | COc1ccc(F)cc1C(C)Oc1cc(-c2ccnn2C)cnc1N (stereo not drawn) [Example 43, 3-[1-(5-fluoro-2-methoxyphenyl)-ethoxy]-5-(1-methyl-1H-pyrazol-5-yl)pyridin-2-amine monohydrochloride]
17 | 123 nM | 1.3 nM | 11200 nM | 38.1 nM | COc1ccc(F)cc1C(C)Oc1cc(-c2c(OC)cnn2C)cnc1N (stereo not drawn) [Example 16, 3-[1-(5-fluoro-2-methoxyphenyl)ethoxy]-5-(4-methoxy-1-methyl-1H-pyrazol-5-yl)pyridin-2-amine]
18 | > 1000 nM | 220 nM | > 20000 nM | 135 nM | COc1ccc(F)cc1C(C)Oc1cc(-c2cnnn2CCO)cnc1N (stereo not drawn) [Example 2, 2-(5-{6-amino-5-[1-(5-fluoro-2-methoxyphenyl)ethoxy]-pyridin-3-yl}-1H-1,2,3-triazol-1-yl)ethanol]
19 | 672 nM | 11 nM | 13200 nM | 133 nM | COc1ccc(F)cc1C(C)Oc1cc(-c2cc(Cl)nnc2N)cnc1N (stereo not drawn) [Example 17, 4-{6-amino-5-[1-(5-fluoro-2-methoxyphenyl)ethoxy]-pyridin-3-yl}-6-chloropyridazin-3-amine]
20 | 138 nM | 3.1 nM | > 15400 nM | 47.3 nM | COc1ccc(F)cc1[C@@H](C)Oc1cc(-c2cccnc2CO)cnc1N [Example 27, {6′-amino-5′-[(1R)-1-(5-fluoro-2-methoxyphenyl)-ethoxy]-3,3′-bipyridin-2-yl}methanol]
21 | 883 nM | 36 nM | > 20000 nM | 105 nM | CC(Oc1cc(-c2ccnn2C)cnc1N)c1cc(F)ccc1-n1ccnn1 (stereo not drawn) [Example 32, 3-{1-[5-fluoro-2-(1H-1,2,3-triazol-1-yl)phenyl]-ethoxy}-5-(1-methyl-1H-pyrazol-5-yl)pyridin-2-amine]
22 | 862 nM | 22 nM | > 15800 nM | 120 nM | CC(Oc1cc(-c2ccnn2C)cnc1N)c1cc(F)ccc1C#N (stereo not drawn) [Example 36, 2-(1-{[2-amino-5-(1-methyl-1H-pyrazol-5-yl)pyridin-3-yl]oxy}ethyl)-4-fluorobenzonitrile monohydrochloride]
23 | 194 nM | 1.3 nM | > 18200 nM | 47.2 nM | COc1ccc(F)cc1C(C)Oc1cc(-c2c(C)noc2C)cnc1N (stereo not drawn) [Example 54, 5-(3,5-dimethylisoxazol-4-yl)-3-[1-(5-fluoro-2-methoxyphenyl)-ethoxy]pyridin-2-amine]
24 | 411 nM | 6.9 nM | 6480 nM | 57 nM | CC(Oc1cc(-c2ccnn2C)cnc1N)c1cc(F)ccc1C#N (single isomer, unassigned) [Example 44]
25 | 191 nM | 4.52 nM | 2810 nM | 50.5 nM | CC(Oc1cc(-c2ccnn2C)cnc1N)c1cc(F)ccc1-c1ncco1 (stereo not drawn) [Example 62, 3-{1-[5-fluoro-2-(1,3-oxazol-2-yl)phenyl]ethoxy}-5-(1-methyl-1H-pyrazol-5-yl)pyridin-2-amine]
26 | – | 0.62 nM | 6740 nM | 33.6 nM | COc1ccc(F)cc1C(C)Oc1cc(-c2c(C)n[nH]c2C)cnc1N (stereo not drawn) [Example 6, 5-(3,5-dimethyl-1H-pyrazol-4-yl)-3-[1-(5-fluoro-2-methoxyphenyl)ethoxy]-pyridin-2-amine]
27 | 53.5 nM | 1.05 nM | > 19700 nM | 78.7 nM | COc1ccc(F)cc1C(C)Oc1cc(-c2cccnc2OCCO)cnc1N (stereo not drawn) [Example 19, 2-{6′-Amino-5′-[1-(5-fluoro-2-methoxy-phenyl)-ethoxy]-[3,3]bipyridinyl-2-yloxy}-ethanol]
28 | – | – | 13100 nM | 114 nM | Cc1n[nH]c(C)c1-c1cnc(N)c(OC(C)c2cc(F)ccc2-n2nccn2)c1 (stereo not drawn) [Example 49, 5-(3,5-dimethyl-1H-pyrazol-4-yl)-3-{1-[5-fluoro-2-(2H-1,2,3-triazol-2-yl)phenyl]-ethoxy}pyridin-2-amine]
29 | – | – | 13000 nM | 48 nM | COc1ccc(F)cc1C(C)Oc1cc(-c2cnc(N)nc2C)cnc1N (stereo not drawn) [Example 5, 5-{6-amino-5-[1-(5-fluoro-2-methoxyphenyl)ethoxy]-pyridin-3-yl}-4-methylpyrimidin-2-amine]
